{"source": "patent US7157083B2", "about": "“Compositions and methods for treating retroviral infections” (priority 1998, dated 2007)", "key": {"[1]": {"system": "Rojo virus", "assay": "Study 3 hyaluronidase sensitization assay: RT activity after Rojo challenge of naive PBMCs", "assay_type": "cell-based, HIV-1", "procedure": "Percent virus control (% VC) in the following tables is the mean RT activity (cpm) as a percentage of a virus control. Percent cell control (% CC) is the mean XTT absorbance as a percentage of a cell control.\nReverse transcriptase (RT) activity was measured in cell-free supernatants. Tritiated thymidine triphosphate (NEN) (TTP) was resuspended in distilled H2O at […]. Poly rA and oligo dT were prepared as a stock solution which was kept at −20° C. The RT reaction buffer was prepared fresh on a daily basis and consists of 125 μL 1.0 M EGTA, 125 μL d H2O, 110 μL 10% SDS, 50 μL 1.0 M Tris (pH 7.4), 50 μL 1.0 M DTT, and 40μ1.0 M MgCl2. These three solutions were mixed together in a ratio of 2 parts TTP, 1 part poly rA:oligo dT, and 1 part reaction buffer. Ten microliters of this reaction mixture was placed in a round bottom microtiter plate and 15 μL of virus containing supernatant was added and mixed. The plate was incubated at 37° C. in a water bath with a solid support to prevent submersion of the plate and incubated for 60 minutes. Following reaction, the reaction volume was spotted onto pieces of DE81 paper, washed 5 times for 5 minutes each in a 5% sodium phosphate buffer, 2 times for 1 minute each in distilled water, 2 times for 1 minute each in 70% ethanol, and then dried. Opti-Fluor O was added to each sample and incorporated radioactivity was quantitated utilizing a Wallace 1450 Microbetaplus liquid scintillation counter.\nAssay Summary. […] The the monolayers were 3× washed with PBS, with Human PBMCs (5×10e4/well) returned to the monolayer. The PBMCs were either mixed donor, PHA blast, with IL2 supplemented medium, or were single donor non-PHA blast/no IL2 supplemented. After 72 hours, the PBMCs were removed, reset in a 96 well plate and then challenged with a standard MOI of the Rojo virus. The plates were incubated for an additional 6 days and then assayed for RT activity. The studies were produced in triplicate."}, "[2]": {"system": "HIV-1", "conditions": "Assay #6", "description": "Reverse transcriptase (RT) activity was measured in cell-free supernatants. Tritiated thymidine triphosphate (NEN) (TTP) was resuspended in distilled H2O at 5 Cl/mL. Poly rA and oligo dT were prepared as a stock solution which was kept at −20° C. The RT reaction buffer was prepared fresh on a daily basis and consists of 125 μL 1.0 M EGTA, 125 μL d H2O, 110 μL 10% SDS, 50 μL 1.0 M Tris (pH 7.4), 50 μL 1.0 M DTT, and 40μ1.0 M MgCl2. These three solutions were mixed together in a ratio of 2 parts TTP, 1 part poly rA:oligo dT, and 1 part reaction buffer. Ten microliters of this reaction mixture was placed in a round bottom microtiter plate and 15 μL of virus containing supernatant was added and mixed. The plate was incubated at 37° C. in a water bath with a solid support to prevent submersion of the plate and incubated for 60 minutes. Following reaction, the reaction volume was spotted onto pieces of DE81 paper, washed 5 times for 5 minutes each in a 5% sodium phosphate buffer, 2 times for 1 minute each in distilled water, 2 times for 1 minute each in 70% ethanol, and then dried. Opti-Fluor O was added to each sample and incorporated radioactivity was quantitated utilizing a Wallace 1450 Microbetaplus liquid scintillation counter.\nControl groups were not treated with the enzyme."}}, "note": "Read-outs that look alike come from different tables or passages of the source."}
{"substance": "Hyaluronidase", "values": [{"measurement": "RT activity % VC", "setting": "[1]; 0.20 μg/mL, 5 μL GP120 IIIB, With PHA/IL2", "value": 78.6, "unit": "%"}, {"measurement": "RT activity % VC", "setting": "[1]; 0.20 μg/mL, 5 μL GP120 IIIB, Without PHA/IL2", "value": 155.9, "unit": "%"}, {"measurement": "RT activity % VC", "setting": "[1]; 0.20 μg/mL, 5 μL Rojo, With PHA/IL2", "value": 88.8, "unit": "%"}, {"measurement": "RT activity % VC", "setting": "[1]; 0.20 μg/mL, 5 μL Rojo, Without PHA/IL2", "value": 77.8, "unit": "%"}, {"measurement": "RT activity % VC", "setting": "[1]; 0.20 μg/mL, 10 μL Rojo, Without PHA/IL2", "value": 112.8, "unit": "%"}, {"measurement": "RT activity % VC", "setting": "[1]; 0.20 μg/mL, 50 μL Rojo, With PHA/IL2", "value": 79.1, "unit": "%"}, {"measurement": "RT activity % VC", "setting": "[1]; 0.20 μg/mL, 50 μL Rojo, Without PHA/IL2", "value": 125.8, "unit": "%"}, {"measurement": "RT activity % VC", "setting": "[1]; 0.39 μg/mL, 5 μL GP120 IIIB, With PHA/IL2", "value": 116.1, "unit": "%"}, {"measurement": "RT activity % VC", "setting": "[1]; 0.39 μg/mL, 5 μL GP120 IIIB, Without PHA/IL2", "value": 195.6, "unit": "%"}, {"measurement": "RT activity % VC", "setting": "[1]; 0.39 μg/mL, 5 μL Rojo, With PHA/IL2", "value": 79.7, "unit": "%"}, {"measurement": "RT activity % VC", "setting": "[1]; 0.39 μg/mL, 5 μL Rojo, Without PHA/IL2", "value": 102.7, "unit": "%"}, {"measurement": "RT activity % VC", "setting": "[1]; 0.39 μg/mL, 10 μL Rojo, With PHA/IL2", "value": 123.2, "unit": "%"}, {"measurement": "RT activity % VC", "setting": "[1]; 0.39 μg/mL, 10 μL Rojo, Without PHA/IL2", "value": 115.9, "unit": "%"}, {"measurement": "RT activity % VC", "setting": "[1]; 0.39 μg/mL, 50 μL Rojo, With PHA/IL2", "value": 87.6, "unit": "%"}, {"measurement": "RT activity % VC", "setting": "[1]; 0.39 μg/mL, 50 μL Rojo, Without PHA/IL2", "value": 149.4, "unit": "%"}, {"measurement": "RT activity % VC", "setting": "[1]; 0.78 μg/mL, 5 μL GP120 IIIB, With PHA/IL2", "value": 101.9, "unit": "%"}, {"measurement": "RT activity % VC", "setting": "[1]; 0.78 μg/mL, 5 μL GP120 IIIB, Without PHA/IL2", "value": 134.4, "unit": "%"}, {"measurement": "RT activity % VC", "setting": "[1]; 0.78 μg/mL, 5 μL Rojo, With PHA/IL2", "value": 68.2, "unit": "%"}, {"measurement": "RT activity % VC", "setting": "[1]; 0.78 μg/mL, 5 μL Rojo, Without PHA/IL2", "value": 7.0, "unit": "%"}, {"measurement": "RT activity % VC", "setting": "[1]; 0.78 μg/mL, 10 μL Rojo, With PHA/IL2", "value": 110.5, "unit": "%"}, {"measurement": "RT activity % VC", "setting": "[1]; 0.78 μg/mL, 10 μL Rojo, Without PHA/IL2", "value": 97.6, "unit": "%"}, {"measurement": "RT activity % VC", "setting": "[1]; 0.78 μg/mL, 50 μL Rojo, With PHA/IL2", "value": 102.6, "unit": "%"}, {"measurement": "RT activity % VC", "setting": "[1]; 1.56 μg/mL, 5 μL GP120 IIIB, With PHA/IL2", "value": 98.0, "unit": "%"}, {"measurement": "RT activity % VC", "setting": "[1]; 1.56 μg/mL, 5 μL GP120 IIIB, Without PHA/IL2", "value": 158.5, "unit": "%"}, {"measurement": "RT activity % VC", "setting": "[1]; 1.56 μg/mL, 5 μL Rojo, With PHA/IL2", "value": 59.0, "unit": "%"}, {"measurement": "RT activity % VC", "setting": "[1]; 1.56 μg/mL, 5 μL Rojo, Without PHA/IL2", "value": 6.4, "unit": "%"}, {"measurement": "RT activity % VC", "setting": "[1]; 1.56 μg/mL, 10 μL Rojo, With PHA/IL2", "value": 125.9, "unit": "%"}, {"measurement": "RT activity % VC", "setting": "[1]; 1.56 μg/mL, 10 μL Rojo, Without PHA/IL2", "value": 115.6, "unit": "%"}, {"measurement": "RT activity % VC", "setting": "[1]; 1.56 μg/mL, 50 μL Rojo, With PHA/IL2", "value": 115.7, "unit": "%"}, {"measurement": "RT activity % VC", "setting": "[1]; 1.56 μg/mL, 50 μL Rojo, Without PHA/IL2", "value": 146.0, "unit": "%"}, {"measurement": "RT activity % VC", "setting": "[1]; 3.1 μg/mL, 5 μL GP120 IIIB, With PHA/IL2", "value": 85.5, "unit": "%"}, {"measurement": "RT activity % VC", "setting": "[1]; 3.1 μg/mL, 5 μL GP120 IIIB, Without PHA/IL2", "value": 145.7, "unit": "%"}, {"measurement": "RT activity % VC", "setting": "[1]; 3.1 μg/mL, 5 μL Rojo, With PHA/IL2", "value": 56.0, "unit": "%"}, {"measurement": "RT activity % VC", "setting": "[1]; 3.1 μg/mL, 5 μL Rojo, Without PHA/IL2", "value": 9.7, "unit": "%"}, {"measurement": "RT activity % VC", "setting": "[1]; 3.1 μg/mL, 10 μL Rojo, With PHA/IL2", "value": 117.8, "unit": "%"}, {"measurement": "RT activity % VC", "setting": "[1]; 3.1 μg/mL, 10 μL Rojo, Without PHA/IL2", "value": 97.3, "unit": "%"}, {"measurement": "RT activity % VC", "setting": "[1]; 3.1 μg/mL, 50 μL Rojo, With PHA/IL2", "value": 97.3, "unit": "%"}, {"measurement": "RT activity % VC", "setting": "[1]; 3.1 μg/mL, 50 μL Rojo, Without PHA/IL2", "value": 86.8, "unit": "%"}, {"measurement": "RT activity % VC", "setting": "[1]; 6.3 μg/mL, 5 μL GP120 IIIB, With PHA/IL2", "value": 105.3, "unit": "%"}, {"measurement": "RT activity % VC", "setting": "[1]; 6.3 μg/mL, 5 μL GP120 IIIB, Without PHA/IL2", "value": 71.7, "unit": "%"}, {"measurement": "RT activity % VC", "setting": "[1]; 6.3 μg/mL, 5 μL Rojo, Without PHA/IL2", "value": 15.7, "unit": "%"}, {"measurement": "RT activity % VC", "setting": "[1]; 6.3 μg/mL, 10 μL Rojo, Without PHA/IL2", "value": 67.1, "unit": "%"}, {"measurement": "RT activity % VC", "setting": "[1]; 6.3 μg/mL, 50 μL Rojo, With PHA/IL2", "value": 61.3, "unit": "%"}, {"measurement": "RT activity % VC", "setting": "[1]; 6.3 μg/mL, 50 μL Rojo, Without PHA/IL2", "value": 21.3, "unit": "%"}, {"measurement": "RT activity % VC", "setting": "[1]; 25 μg/mL, 5 μL GP120 IIIB, With PHA/IL2", "value": 85.5, "unit": "%"}, {"measurement": "RT activity % VC", "setting": "[1]; 25 μg/mL, 5 μL GP120 IIIB, Without PHA/IL2", "value": 8.8, "unit": "%"}, {"measurement": "RT activity % VC", "setting": "[1]; 25 μg/mL, 5 μL Rojo, Without PHA/IL2", "value": 8.8, "unit": "%"}, {"measurement": "RT activity % VC", "setting": "[1]; 25 μg/mL, 10 μL Rojo, With PHA/IL2", "value": 97.3, "unit": "%"}, {"measurement": "RT activity % VC", "setting": "[1]; 25 μg/mL, 10 μL Rojo, Without PHA/IL2", "value": 2.3, "unit": "%"}, {"measurement": "RT activity % VC", "setting": "[1]; 25 μg/mL, 50 μL Rojo, With PHA/IL2", "value": 73.4, "unit": "%"}, {"measurement": "RT activity % VC", "setting": "[1]; 25 μg/mL, 50 μL Rojo, Without PHA/IL2", "value": 8.4, "unit": "%"}, {"measurement": "% Control", "setting": "[2]; 5 mg/mL", "value": 54.1, "unit": "%"}, {"measurement": "Mean RT", "setting": "[2]; 5 mg/mL", "value": 12279.7, "unit": "cpm"}, {"measurement": "% Control", "setting": "[2]; 10 mg/mL", "value": 49.6, "unit": "%"}, {"measurement": "Mean RT", "setting": "[2]; 10 mg/mL", "value": 11244.7, "unit": "cpm"}, {"measurement": "% Control", "setting": "[2]; 20 mg/mL", "value": 19.5, "unit": "%"}, {"measurement": "Mean RT", "setting": "[2]; 20 mg/mL", "value": 4430.7, "unit": "cpm"}, {"measurement": "% Control, Sum", "setting": "[2]; Sum over 20, 10, 5 mg/mL", "value": 123.2, "unit": "%"}, {"measurement": "Mean RT, Sum", "setting": "[2]; Sum over 20, 10, 5 mg/mL", "value": 27955.1, "unit": "cpm"}]}
